Data reported in US6472418B1, “Non-peptide NK1 receptors antagonists” (Warner-Lambert Company, priority 1998, dated 2002).

Target: T1, Human NK1 Receptor (Homo sapiens, UniProt P25103)
T1 construct: endogenous in cells; host or cells: Human lymphoma IM9 cells (whole cells)
Assay: In Vitro Human NK1 Receptor Binding Assay ([125I]Bolton-Hunter substance P displacement, IM9 cells)
Conditions: human NK1 receptor, IM9 cells, [125I]Bolton-Hunter substance P; read-out: IC50 (nM) hNK1
Procedure, shortened: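 Test compounds competed with 0.05-0.1 nM [125I]Bolton-Hunter substance P for binding to intact IM9 cells over 50 min at 21° C, pH 7.4 buffer with MnCl2 and peptidase inhibitors. […] [Sar9, Met(O2)11] substance P gave non-specific binding. Bound counts were measured after filtration and fitted iteratively.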

T1 sequence (P25103 whole entry): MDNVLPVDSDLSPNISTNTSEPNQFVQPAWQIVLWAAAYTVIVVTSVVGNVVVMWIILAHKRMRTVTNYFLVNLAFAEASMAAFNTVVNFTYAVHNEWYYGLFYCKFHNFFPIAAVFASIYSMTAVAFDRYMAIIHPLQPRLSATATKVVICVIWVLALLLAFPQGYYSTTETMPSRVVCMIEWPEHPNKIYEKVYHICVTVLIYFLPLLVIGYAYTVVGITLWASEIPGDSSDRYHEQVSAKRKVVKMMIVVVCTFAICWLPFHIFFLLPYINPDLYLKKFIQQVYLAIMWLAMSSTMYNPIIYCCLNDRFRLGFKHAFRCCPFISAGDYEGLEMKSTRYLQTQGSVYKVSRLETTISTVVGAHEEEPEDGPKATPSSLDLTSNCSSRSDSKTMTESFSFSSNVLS

Row | Compound | IC50 [nM]
1 | CC(Cc1c[nH]c2ccccc12)(NCc1cc2ccccc2o1)C(=O)NCC(C)(C)c1ccccc1 (stereo not shown) [compound 133, 2-[(Benzofuran-2-ylmethyl)-amino]-3-(1H-indol-3-yl)-2-methyl-N-(2-methyl-2-phenyl-propyl)-propionamide] | 4480
2 | CC(Cc1c[nH]c2ccccc12)(NCc1cc2ccccc2o1)C(=O)NCC1CCCO1 (stereo not shown) [compound 135, 2-[(Benzofuran-2-ylmethyl)-amino]-3-(1H-indol-3-yl)-2-methyl-N-(tetrahydro-furan-2-ylmethyl)-propionamide] | 1200
3 | CC1(CNC(=O)C(C)(Cc2c[nH]c3ccccc23)NCc2cc3ccccc3o2)CCCO1 (stereo not shown) [compound 136, 2-[(Benzofuran-2-ylmethyl)-amino]-3-(1H-indol-3-yl)-2-methyl-N-(2-methyl-tetrahydro-furan-2-ylmethyl)-propionamide] | > 10000
4 | CC(Cc1c[nH]c2ccccc12)(NCc1cc2ccccc2o1)C(=O)NCC1CCCO1 (stereo not shown) [compound 138, 2-[(Benzofuran-2-ylmethyl)-amino]-3-(1H-indol-3-yl)-2-methyl-N-(tetrahydro-furan-2-ylmethyl)-propionamide] | 4870
5 | CC(Cc1c[nH]c2ccccc12)(NCc1cc2ccccc2o1)C(=O)NCc1ccc(N)c2ccccc12 (stereo not shown) [compound 141, N-(4-Amino-naphthalen-1-ylmethyl)-2-[(benzofuran-2-ylmethyl)-amino]-3-(1H-indol-3-yl)-2-methyl-propionamide] | 2340
6 | COc1cccc(CNC(=O)C(C)(Cc2c[nH]c3ccccc23)NCc2cc3ccccc3o2)c1OC (stereo not shown) [compound 142, 2-[(Benzofuran-2-ylmethyl)-amino]-N-(2,3-dimethoxy-benzyl)-3-(1H-indol-3-yl)-2-methyl-propionamide] | 1960
7 | CC(Cc1c[nH]c2ccccc12)(NCc1cc2ccccc2o1)C(=O)NCCc1ccc(O)cc1 (stereo not shown) [compound 143, 2-[(Benzofuran-2-ylmethyl)-amino]-N-[2-(4-hydroxy-phenyl)-ethyl]-3-(1H-indol-3-yl)-2-methyl-propionamide] | > 10000
8 | CC(Cc1c[nH]c2ccccc12)(NCc1cc2ccccc2o1)C(=O)NC1(CO)CCCC1 (stereo not shown) [compound 144, 2-[(Benzofuran-2-ylmethyl)-amino]-N-(1-hydroxymethyl-cyclopentyl)-3-(1H-indol-3-yl)-2-methyl-propionamide] | > 10000
9 | CC(NC(=O)C(C)(Cc1c[nH]c2ccccc12)NCc1cc2ccccc2o1)C1=CCCO1 (stereo not shown) [compound 146, 2-[(Benzofuran-2-ylmethyl)-amino]-N-[1-(4,5-dihydro-furan-2-yl)-ethyl]-3-(1H-indol-3-yl)-2-methyl-propionamide] | 3590
10 | CC(Cc1c[nH]c2ccccc12)(NCc1cc2ccccc2o1)C(=O)NC1CCCc2ccccc21 (stereo not shown) [compound 148, 2-[(Benzofuran-2-ylmethyl)-amino]-3-(1H-indol-3-yl)-2-methyl-N-(1,2,3,4-tetrahydro-naphthalen-1-yl)-propionamide] | > 10000
11 | CC(CNC(=O)C(C)(Cc1c[nH]c2ccccc12)NCc1cc2ccccc2o1)c1ccccc1 (stereo not shown) [compound 150, 2-[(Benzofuran-2-ylmethyl)-amino]-3-(1H-indol-3-yl)-2-methyl-N-(2-phenyl-propyl)-propionamide] | 262
12 | CC(Cc1c[nH]c2ccccc12)(NCc1cc2ccccc2o1)C(=O)NCCN1CCCC1 (stereo not shown) [compound 155, 2-[(Benzofuran-2-ylmethyl)-amino]-3-(1H-indol-3-yl)-2-methyl-N-(2-pyrrolidin-1-yl-ethyl)-propionamide] | > 10000
13 | CC(Cc1c[nH]c2ccccc12)(NCc1cc2ccccc2o1)C(=O)NCC1(c2cccnc2)CCC1 (stereo not shown) [compound 159, 2-[(Benzofuran-2-ylmethyl)-amino]-3-(1H-indol-3-yl)-2-methyl-N-(1-pyridin-3-yl-cyclobutylmethyl)-propionamide] | 3760
14 | CC(Cc1c[nH]c2ccccc12)(NCc1cc2ccccc2o1)C(=O)NC1(c2cccs2)CCCCC1 (stereo not shown) [compound 160, 2-[(Benzofuran-2-ylmethyl)-amino]-3-(1H-indol-3-yl)-2-methyl-N-(1-thiophen-2-yl-cyclohexyl)-propionamide] | > 10000
15 | CCC(NC(=O)C(C)(Cc1c[nH]c2ccccc12)NCc1cc2ccccc2o1)c1ccccc1 (stereo not shown) [compound 162, 2-[(Benzofuran-2-ylmethyl)-amino]-3-(1H-indol-3-yl)-2-methyl-N-(1-phenyl-propyl)-propionamide] | 42
16 | CC(Cc1c[nH]c2ccccc12)(NCc1cc2ccccc2o1)C(=O)NCC1CC2CCC1C2 (stereo not shown) [compound 165, 2-[(Benzofuran-2-ylmethyl)-amino]-N-bicyclo[2.2.1]hept-2-ylmethyl-3-(1H-indol-3-yl)-2-methyl-propionamide] | > 10000

The next lines start with the values.

Row | IC50 [nM] | Compound
17 | 6030 | CC(Cc1c[nH]c2ccccc12)(NCc1cc2ccccc2o1)C(=O)NCCN1CCNC1=S (stereo not shown) [compound 132, 2-[(Benzofuran-2-ylmethyl)-amino]-3-(1H-indol-3-yl)-2-methyl-N-[2-(2-thioxo-imidazolidin-1-yl)-ethyl]-propionamide]
18 | 5370 | CC(Cc1c[nH]c2ccccc12)(NCc1cc2ccccc2o1)C(=O)NCCCn1ccnc1 (stereo not shown) [compound 134, 2-[(Benzofuran-2-ylmethyl)-amino]-N-(3-imidazol-1-yl-propyl)-3-(1H-indol-3-yl)-2-methyl-propionamide]
19 | 100 | CC(Cc1c[nH]c2ccccc12)(NCc1cc2ccccc2o1)C(=O)NCc1cccs1 (stereo not shown) [compound 137, 2-[(Benzofuran-2-ylmethyl)-amino]-3-(1H-indol-3-yl)-2-methyl-N-thiophen-2-ylmethyl-propionamide]
20 | 99 | CC(Cc1c[nH]c2ccccc12)(NCc1cc2ccccc2o1)C(=O)NCc1cc(F)ccc1F (stereo not shown) [compound 139, 2-[(Benzofuran-2-ylmethyl)-amino]-N-(2,5-difluoro-benzyl)-3-(1H-indol-3-yl)-2-methyl-propionamide]
21 | > 10000 | CC(CNC(=O)C(C)(Cc1c[nH]c2ccccc12)NCc1cc2ccccc2o1)c1ccccc1 (stereo not shown) [compound 140, 2-[(Benzofuran-2-ylmethyl)-amino]-3-(1H-indol-3-yl)-2-methyl-N-(2-phenyl-propyl)-propionamide]
22 | 1300 | CC(Cc1c[nH]c2ccccc12)(NCc1cc2ccccc2o1)C(=O)NCCc1cccnc1 (stereo not shown) [compound 145, 2-[(Benzofuran-2-ylmethyl)-amino]-3-(1H-indol-3-yl)-2-methyl-N-(2-pyridin-3-yl-ethyl)-propionamide]
23 | > 10000 | CC(Cc1c[nH]c2ccccc12)(NCc1cc2ccccc2o1)C(=O)NCCN1CCNCC1 (stereo not shown) [compound 147, 2-[(Benzofuran-2-ylmethyl)-amino]-3-(1H-indol-3-yl)-2-methyl-N-(2-piperazin-1-yl-ethyl)-propionamide]
24 | > 10000 | COC1C=CC(CNC(=O)C(C)(Cc2c[nH]c3ccccc23)NCc2cc3ccccc3o2)(OC)O1 (stereo not shown) [compound 149, 2-[(Benzofuran-2-ylmethyl)-amino]-N-(2,5-dimethoxy-2,5-dihydro-furan-2-ylmethyl)-3-(1H-indol-3-yl)-2-methyl-propionamide]
25 | 1210 | CC(Cc1c[nH]c2ccccc12)(NCc1cc2ccccc2o1)C(=O)NCc1cnc2ccccc2c1 (stereo not shown) [compound 151, 2-[(Benzofuran-2-ylmethyl)-amino]-3-(1H-indol-3-yl)-2-methyl-N-quinolin-3-ylmethyl-propionamide]
26 | > 10000 | CC(Cc1c[nH]c2ccccc12)(NCc1cc2ccccc2o1)C(=O)NCC(CC(=O)O)c1ccccc1 (stereo not shown) [compound 152, 4-[2-[(Benzofuran-2-ylmethyl)-amino]-3-(1H-indol-3-yl)-2-methyl-propionylamino]-3-phenyl-butyric acid]
27 | 3550 | COc1cc(C(O)CNC(=O)C(C)(Cc2c[nH]c3ccccc23)NCc2cc3ccccc3o2)ccc1O (stereo not shown) [compound 153, 2-[(Benzofuran-2-ylmethyl)-amino]-N-[2-hydroxy-2-(4-hydroxy-3-methoxy-phenyl)-ethyl]-3-(1H-indol-3-yl)-2-methyl-propionamide]
28 | > 10000 | CC(Cc1c[nH]c2ccccc12)(NCc1cc2ccccc2o1)C(=O)NCC1CCNC1 (stereo not shown) [compound 154, 2-[(Benzofuran-2-ylmethyl)-amino]-3-(1H-indol-3-yl)-2-methyl-N-pyrrolidin-3-ylmethyl-propionamide]
29 | > 10000 | CC(Cc1c[nH]c2ccccc12)(NCc1cc2ccccc2o1)C(=O)NCC1CCNCC1 (stereo not shown) [compound 156, 2-[(Benzofuran-2-ylmethyl)-amino]-3-(1H-indol-3-yl)-2-methyl-N-piperidin-4-ylmethyl-propionamide]
30 | 455 | Cc1ccccc1CNC(=O)C(C)(Cc1c[nH]c2ccccc12)NCc1cc2ccccc2o1 (stereo not shown) [compound 157, 2-[(Benzofuran-2-ylmethyl)-amino]-3-(1H-indol-3-yl)-2-methyl-N-(2-methyl-benzyl)-propionamide]
31 | 2570 | CC(Cc1c[nH]c2ccccc12)(NCc1cc2ccccc2o1)C(=O)NC1CCc2ccccc21 (stereo not shown) [compound 158, 2-[(Benzofuran-2-ylmethyl)-amino]-N-indan-1-yl-3-(1H-indol-3-yl)-2-methyl-propionamide]
32 | > 10000 | CC(Cc1c[nH]c2ccccc12)(NCc1cc2ccccc2o1)C(=O)NCCc1ccc(O)c(O)c1 (stereo not shown) [compound 161, 2-[(Benzofuran-2-ylmethyl)-amino]-N-[2-(3,4-dihydroxy-phenyl)-ethyl]-3-(1H-indol-3-yl)-2-methyl-propionamide]
33 | 166 | CC(Cc1c[nH]c2ccccc12)(NCc1cc2ccccc2o1)C(=O)NCC(=O)c1ccccc1 (stereo not shown) [compound 163, 2-[(Benzofuran-2-ylmethyl)-amino]-3-(1H-indol-3-yl)-2-methyl-N-(2-oxo-2-phenyl-ethyl)-propionamide]
34 | 37 | CC(Cc1c[nH]c2ccccc12)(NCc1cc2ccccc2o1)C(=O)NCc1cccc(F)c1 (stereo not shown) [compound 166, 2-[(Benzofuran-2-ylmethyl)-amino]-N-(3-fluoro-benzyl)-3-(1H-indol-3-yl)-2-methyl-propionamide]
